Measurements reported in patent US20020151534A1, “Antithrombotic compounds” (priority 2001, published 2002).

molecular target: T1, human factor Xa (Homo sapiens, UniProt P00742); experiment: Inhibition of factor Xa, enzyme-kinetic measurement with chromogenic substrate; format: biochemical; settings: substrate Chromozym X 200 μMol/l, pNA release at 405 nm, pH 8.0, 37° C.
T1 construct: released from the colourless chromogenic substrate by human factor Xa; purchased Roche
Protocol: Enzyme-kinetic measurement with chromogenic substrate. The quantity of anp-nitroaniline (pNA) released from the colourless chromogenic substrate by human factor Xa is determined photometrically at 405 nm. It is proportional to the activity of the enzyme used. The inhibition of the enzyme activity by the test substance I (in relation to the solvent control) is determined at various concentrations of test substance and from this the IC50 is calculated, as the concentration which inhibits the factor Xa used by 50%.
Tris(hydroxymethyl)-aminomethane buffer (100 mmol) and sodium chloride (150 mMol), pH 8.0
Factor Xa (Roche), spec. activity: 10 U/0.5 ml, final concentration: 0.175 U/ml for each reaction mixture
Substrate Chromozym X (Roche), final concentration: 200 μMol/l for each reaction mixture
10 μl of a 23.5-times concentrated starting solution of the test substance or solvent (control), 175 μl of tris(hydroxymethyl)-aminomethane buffer and 25 μl of a 1.65 U/ml Factor Xa working solution are incubated for 10 minutes at 37° C. After the addition of 25 μl of Chromozym X working solution ([…]) the sample is measured in a photometer (SpectraMax 250) at 405 nm for 150 seconds at 37° C.
1. Determining the maximum increase (deltaOD/minutes) over 3 measuring points.
2. Determining the % inhibition based on the solvent control.
3. Plotting a dosage/activity curve (% inhibition vs substance concentration).
4. Determining the IC50 by interpolating the X value (substance concentration) of the dosage/activity curve at Y=50% inhibition.

T1 sequence (P00742 235-488 limits assumed): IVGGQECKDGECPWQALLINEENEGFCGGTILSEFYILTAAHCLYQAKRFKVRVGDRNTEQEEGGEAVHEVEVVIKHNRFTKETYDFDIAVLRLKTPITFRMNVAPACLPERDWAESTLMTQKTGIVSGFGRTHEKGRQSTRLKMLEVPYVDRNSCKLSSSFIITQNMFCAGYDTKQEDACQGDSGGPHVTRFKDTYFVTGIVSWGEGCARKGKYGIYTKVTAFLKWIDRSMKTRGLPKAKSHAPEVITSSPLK
T1 sequence (P00742 41-179 partner limits assumed): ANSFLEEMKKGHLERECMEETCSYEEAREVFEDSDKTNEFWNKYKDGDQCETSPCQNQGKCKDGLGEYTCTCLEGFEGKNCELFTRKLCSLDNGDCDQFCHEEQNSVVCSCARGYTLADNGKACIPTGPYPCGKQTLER

SMILES | IC50
Cc1cc(C(=O)NCc2cc(C(=N)N)ccc2O)ccc1C(=O)N1CCCC1 [(2)] | 0.014 µM
CCOC(=O)CCC(=O)N(c1ccc(C(=O)NCc2cc(C(=N)N)ccc2O)cc1C)C1CCCC1 [(3)] | 0.075 µM
Cc1cc(C(=O)NC(CC(=O)O)c2cccc(C(=N)N)c2)ccc1C(=O)N1CCCC1 (centres unmarked) [(5)] | 0.031 µM
Cc1cc(NCCc2cc(C(=N)N)ccc2O)ccc1C(=O)N1CCCC1 [(1)] | 0.084 µM
N=C(N)c1ccc(O)c(CNC(=O)c2ccc(C(=O)N3CCCC3)c(Cl)c2)c1 [(4)] | 0.01 µM
